These results are taken from paper PMC5506043, “Inhibitory effects of local anesthetics on the proteasome and their biological actions” (Scientific Reports, 2017).

Each structure is given as a SMILES string. Like-named read-outs stand apart in the source and are kept apart here. Where a SMILES comes first, the peptide text is derived from it. The star is where a group is joined. Cbz = O=C(OCc1ccccc1)*

Assay [1] has as its target T1, 20S proteasome (Homo sapiens, UniProt P28074+P49721).
T1 construct: purchased Calbiochem
Also noted: method as in PMID 23026372. The note with it: previously reported; cited from earlier work.

Assay [2] deals with T1, 20S proteasome. As to the kind of experiment: 20S proteasome activity (chymotrypsin-like, Suc-Leu-Leu-Val-Tyr-MCA substrate). It is filed as biochemical. The note with it: for IC50: 37 °C, 1 h. The method, then: 20S Proteasome activity was assessed by fluorescence of free AMC (7-Amino-4-methylcoumarin, excitation: 380 nm, emission: 460 nm) liberated from a substrate peptide (Suc-Leu-Leu-Val-Tyr-MCA). The reaction mixture contained the 20S proteasome (500 μg/ml), the substrate peptide (10 μM) and the indicated drugs in 25 mM HEPES, 0.5 mM EDTA, 0.03% SDS, pH 7.6. The mixture was incubated at 37 °C for 1 h. AMC fluorescence liberated in the absence of drugs was taken as the basal value (100%). The fluorescence liberated in the absence of SDS was taken as the background value (0%)[13]. Most of the activity assays were conducted using an assay kit (Calbiochem), but some were conducted in hand-made buffer solutions.
Concentration dependence of the effects of each drug on the stability of the short-lived protein and the 20S proteasome activity was fitted using the following equation: B%=Bmax·[Drug]^n/(IC50^n+[Drug]^n) where, B% represents the changes in expression of the short-lived protein and the 20S proteasome activity induced by drugs at a given concentration of the [drug], and Bmax represents the maximum attainable reduction. IC50 and n are the half-maximal inhibitory concentration and Hill coefficient, respectively.

In assay [3] the target is T1, 20S proteasome. Briefly: [3H]-pilsicainide binding assay. The note with it: displacement of [3H]-pilsicainide, 1 h, room temperature. The method, then:
Commercially available 20S proteasome was purchased from Calbiochem. LAs and their derivatives at increasing concentrations (10^–8 to 10^–2 M) were incubated with [^3H]-pilsicainide for 1 h at room temperature in buffer containing 50 mM HEPES supplemented with 1% bovine serum albumin (pH 7.4). Following the reaction termination by addition of 100% […], the bound and unbound ligands were separated by centrifugation. Specific binding was defined as the difference between binding capacities in the pellet and supernatant.

Assay [4] has as its target T2, wild-type 20S proteasome trypsin-like activity (Saccharomyces cerevisiae, UniProt P25043).
T2 construct: U.B. purified the yeast 20S proteasome and assayed proteasome activity; made in house; host or cells: yeast (purified from wild-type cells; inferred)
Briefly: Trypsin-like activity of the wild-type 20S proteasome. It is filed as biochemical.

The target in assay [5] is T3, wild-type 20S proteasome caspase-like activity (Saccharomyces cerevisiae, UniProt P38624).
T3 construct: U.B. purified the yeast 20S proteasome and assayed proteasome activity; made in house; host or cells: yeast (purified from wild-type cells; inferred)
Briefly: Caspase-like activity of the wild-type 20S proteasome. It is filed as biochemical.

In a further assay the test system is p53-FLAG in COS7 cells. Briefly: p53-FLAG expression in transfected COS7 cells (Western blot). The format is cell-based. The method, then:
pcDNA3/p53-FLAG was a kind gift from Dr. Nakayama (Kyushu University). pcDNA3/Mdm2 (C438A) was a kind gift from Dr. Yasuda (Tokyo Pharmaceutical College). pCR/CMV/hH1 was a kind gift from Dr. Makita (Hokkaido University). COS7 cells were maintained in Dulbecco’s modified Eagle medium (Gibco BRL)/10% fetal bovine serum at 37 °C in a 5% CO2 incubator. Cells were transfected using lipofectamine (Gibco BRL) according to the instructions provided by the manufacturer. Forty-eight hours after transfection, cells were assayed. Proteasome inhibitors or LAs were applied 36 hours after transfection. All drugs except for MG132 were dissolved in culture medium or distilled water. MG132 was dissolved in dimethyl sulfoxide (DMSO). The final concentration of DMSO in the culture or reaction medium was equal to or less than 0.01% v/v. Pilsicainide was kindly provided by Daiichi Suntory Pharmaceutical Co., Ltd. (Osaka, Japan).
(§1) The same amounts (10 μg) of protein were separated on SDS-PAGE and electro-transferred to a polyvinylidene difluoride membrane. Membranes were probed with antibodies against FLAG (1:1000, Cosmo Bio), GFP (1:1000, Molecular Probes), ubiquitin (1:1000, MBL) or β-actin (1:1000, Oncogene) and were developed using an ECL detection system. Immunoprecipitation was carried out in PBS/1% Triton X-100, 0.5% SDS, 0.25% sodium deoxycholate, 1 mM ethylenediaminetetraacetic acid (EDTA), and 10 μg/ml aprotinin, 10 μg/ml leupeptine, 10 μg/ml pepstatin and 1 mM phenylmethylsulfonylfluoride for 2 h at 4 °C. Immune complexes were collected with protein G agarose (GE Healthcare Life Science) and bound proteins were analyzed by SDS-PAGE followed by immunoblotting.
Background: In western blotting, separated proteins are transferred to a membrane and probed.

Another assay has as its system p53 in MKN45 cells. Briefly: Endogenous p53 expression in MKN45 cells (Western blot). The format is cell-based. The note with it: 24 h. On the procedure:
Cell lysates were analyzed by Western blot analysis (a). Quantitative analysis of p53-FLAG stability using densitometry is shown in (b). Each point was expressed relative to the values in the absence of drugs (100%). […] Cell lysates were analyzed by Western blot analysis (c). Quantitative analysis of the protein level of endogenous p53 was conducted using densitometry (d).
as §1

Assay [6] relates to MKN45 cells. Briefly: Proliferation of MKN45 cells (MTT assay). It is filed as cell-based. To be noted: 24 h, p53-expressing cells. The source says: Figure 4 Effects of LAs on cancer cells. (a) Effects of LAs on the proliferation of MKN45 cells. […] Proliferation of […] was estimated by MTT assays.
On the technique in general: Tetrazolium dyes change colour on reduction, which living cells bring about.

In a further assay the test system is Kato III cells. Briefly: Proliferation of Kato III cells. The format is cell-based. The note with it: 24 h; pilsicainide 1 μM, lidocaine 20 μM; cells do not express p53.
In assay [7] the test system is MKN45 cells. As to the kind of experiment: Tumor growth of pretreated MKN45 cells transplanted into mice. To be noted: MKN45 cells pretreated with drug, transplanted into the intestine of SOD SKID mice. It is filed as in vivo.
Setting [8] is: COS7 cells transfected with p53-FLAG.
[9] abbreviates: COS7 cells, dominant negative Mdm2 (C438A), 12 h, MG132 50 µM, pilsicainide 20 µM, lidocaine 1 mM.

Consider `CC(C)COCC(CN(Cc1ccccc1)c1ccccc1)N1CCCC1` (stereo not drawn) [bepridil], for which the “Inhibitory action on the proteasome (in words)” value on 20S proteasome [1] is recorded as “did not show the inhibitory action on the proteasome”.

As to `CCN(CC)CCCN(c1ccccc1)C1Cc2ccccc2C1` [aprindine], at 20S proteasome [2] (in vitro), the “Effect on 20S proteasome activity (in words)” value was “inhibit the 20S proteasome”.

In the case of `Cc1cccc(C)c1OCC(C)N` (stereo not drawn) [mexiletine], on 20S proteasome [2] (in vitro), the “Effect on 20S proteasome activity (in words)” value is “inhibit the 20S proteasome” and the IC50 turned out to be 14 ± 6.3 µM.

As to `Cc1cccc(C)c1NC(=O)CC12CCCN1CCC2` [pilsicainide], on 20S proteasome [2] (in vitro), the “Effect on 20S proteasome activity (in words)” value is on record as “inhibited 20S proteasome activity” and the IC50 turned out to be 3.5 ± 1.5 µM. On 20S proteasome [3], this compound showed a dissociation constant Kd of 1 ± 2.8 µM. Also, the “Trypsin-like activity inhibition (in words)” value in assay [4] is “not inhibited”. Further, in [5], the “Caspase-like activity inhibition (in words)” value is recorded as “not inhibited”. The “Expression of p53-FLAG protein (in words)” value in the assay with p53-FLAG in COS7 cells (setting [8]) is “increased the expression of p53-FLAG”. Further, the “Effect on p53-FLAG with co-expression of the C438A mutant of Mdm2 (in words)” value (“Effect on p53-FLAG with co-expression” below) in the assay on p53-FLAG in COS7 cells (setting [9]) was “abolished the effects”. The “Endogenous p53 protein level (in words)” value in the assay with p53 in MKN45 cells is “increased the p53 protein level in MKN45 cells in a dose-dependent manner”. The “Proliferation of MKN45 cells (in words)” value in the assay on MKN45 cells [6] is listed as “suppressed proliferation of MKN45 cells in a dose-dependent manner”. The “Suppression of proliferation of Kato III cells (in words)” value in the assay on Kato III cells was “not observed”.

Take `O=C(CC12CCCN1CCC2)Nc1ccccc1F` [2-F]: at 20S proteasome [2] (in vitro), the “Effect on 20S proteasome activity (in words)” value is listed as “partially inhibited” and the IC50 came to 21.5 ± 46.8 µM.

For the compound `O=C(CC12CCCN1CCC2)Nc1ccc(F)cc1` [4-F], on 20S proteasome [2] (in vitro), the “Effect on 20S proteasome activity (in words)” value is “partially inhibited”. The compound further had a Kd on 20S proteasome [3] of 20 ± 3.2 µM. Moreover, the “Expression of p53-FLAG protein (in words)” value with p53-FLAG in COS7 cells (setting [8]) is reported as “partially increased”. Moreover, the “Endogenous p53 protein level (in words)” value in the assay with p53 in MKN45 cells was “increased p53 a little”.

On to `NC1=N[C@H](O)[C@H]2[C@H]3O[C@]4(O)O[C@@H]([C@@H](O)[C@@]2(N1)[C@@H]4O)[C@]3(O)CO` [Tetrodotoxin], for which, at 20S proteasome [2], the “Effect on 20S proteasome activity (in words)” value is “did not inhibit 20S proteasome activity”.

On to `CCN(CC)CC(=O)Nc1c(C)cccc1C` [lidocaine], for which the “Effect on 20S proteasome activity (in words)” value at 20S proteasome [2] (in vitro) is on record as “inhibited 20S proteasome activity”. For the same compound, at 20S proteasome [3], the dissociation constant (Kd) was 21.2 ± 3.5 µM. Besides, in the assay on p53-FLAG in COS7 cells (setting [8]), the “Expression of p53-FLAG protein (in words)” value is given as “increased the expression of p53-FLAG”. Also, the “Effect on p53-FLAG with co-expression” value in the assay on p53-FLAG in COS7 cells (setting [9]) is on record as “abolished the effects”. In the assay on p53 in MKN45 cells, the “Endogenous p53 protein level (in words)” value was “increased the p53 protein level in MKN45 cells in a dose-dependent manner”. The “Proliferation of MKN45 cells (in words)” value with MKN45 cells [6] is recorded as “suppressed proliferation of MKN45 cells in a dose-dependent manner”. In addition, in the assay on Kato III cells, the “Suppression of proliferation of Kato III cells (in words)” value is given as “not observed”. Further, the entries for the “Tumor growth of transplanted MKN45 cells (in words)” value with MKN45 cells [7] and in the assay on MKN45 cells [7] (listed as Lidocaine) were “significantly decreased the proliferation of MKN45 cells” and “suppression of tumor growth”, respectively.

For `CC(C)C[C@@H](C=O)NC(=O)[C@H](CC(C)C)NC(=O)[C@H](CC(C)C)NC(=O)OCc1ccccc1` [MG132] (Cbz-Leu-Leu-Leu-aldehyde), in the assay with p53-FLAG in COS7 cells, the “Effect on p53-FLAG with co-expression” value is listed as “abolished the effects” and the “Expression of p53-FLAG protein (in words)” value was “increased the expression of p53-FLAG”.

On to `COc1ccc(CCN(C)CCCC(C#N)(c2ccc(OC)c(OC)c2)C(C)C)cc1OC` (stereo not drawn) [verapamil], for which the “Effect on 20S proteasome activity (in words)” value on 20S proteasome [2] is reported as “Neither the Ca^2+ channel blocker verapamil which contains two aromatic rings, nor the K^+ channel blocker E-4031, affected the activity”.

With `O=C(CC12CCCN1CCC2)Nc1cccc(F)c1` [3-F], at 20S proteasome [2] (in vitro), the “Effect on 20S proteasome activity (in words)” value was “partially inhibited” and the concentration for half-maximal inhibition (IC50) came to 20.5 ± 21.8 µM.

As to `Cc1cccc(CCN2CCC(C(=O)c3ccc(NS(C)(=O)=O)cc3)CC2)n1` [E-4031], on 20S proteasome [2] (in vitro), the “Effect on 20S proteasome activity (in words)” value was “Neither the Ca^2+ channel blocker verapamil which contains two aromatic rings, nor the K^+ channel blocker E-4031, affected the activity”.

A word on the IC50: it is the concentration needed to halve the response being measured. High values mean weaker potency in that assay, low ones greater potency in that assay. As a reminder, the Kd is a measure of binding affinity in units of concentration. The low end stands for higher affinity, the high end for lower affinity.
